The assay deals with CEM cells HIV-1 protection, formazan growth assay. Kind of assay: NCI AIDS Antiviral Assay. The note with it: for IC50: measured here: growth of uninfected CEM cells. The gist of the method:
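Human CEM cells, uninfected and HIV-1-infected, received five drug concentrations, and growth was read by soluble formazan assay. Compounds giving at least 50% protection were retested; reproducible 100% protection defined confirmed active.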

From PubChem BioAssay AID179 (DTP/NCI, 2004) come the findings set out here.

A word on the EC50: it is the concentration that produces a half-maximal response. A word on the IC50: it is the concentration that gives 50% inhibition. Low readings indicate inhibition by little substance, high ones a need for much substance.

Calls of active or inactive are those of the source.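 The calls were made as follows: active = compounds giving half or more protection of infected cells from virus-caused growth loss, again on retest; inactive = the rest.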 Where a SMILES comes first, the peptide text is derived from it. The star is where a group is joined. Fmoc = O=C(OCC1c2ccccc2-c2ccccc21)*; Boc = CC(C)(C)OC(=O)* Some results are limits rather than exact numbers.

Turning to `CCCCC(N)CSSCC(N)CCCC` (stereo unspecified), the EC50 was more than 741 µM and the IC50 was found to be 21.4 µM.

Turning to `CN1C2CCC1[C@@H](CO)[C@@H](O)C2` (stereo partly specified), the EC50 was more than 1200 µM and the IC50 is more than 1200 µM.

On to `CCCCCCCCCCCCCCNCC(OCC)OCC`, for which the EC50 is more than 200 µM and the IC50 was determined as 9.33 µM.

Turning to `COC(=O)c1[nH]cnc1O`, the EC50 was more than 200 µM and the concentration for half-maximal inhibition (IC50) was more than 200 µM.

As for `Cc1cc2c(CC(=O)O)[nH]nc2c(C(=O)O)c1C`, the EC50 is more than 1000 µM and the IC50 is more than 1000 µM.

On to `Oc1c2cc(Br)cc1CCc1cc(Br)cc(c1O)CC2`, for which the EC50 was more than 200 µM and the IC50 worked out at 25.7 µM.

For `COc1cccc(C2NC(=O)c3c(n[nH]c3N)S2)c1O` (stereo unspecified), the EC50 is more than 200 µM and the IC50 was more than 200 µM.

As to `CC(=O)OC1CC2CC(=O)CC1N2C` (stereo unspecified), the EC50 is more than 200 µM and the IC50 was more than 200 µM.

On to `CCOC(=O)C1=C(O)c2ccccc2C(=O)C1=O`, for which the EC50 was more than 525 µM and the half-inhibitory concentration (IC50) was 316 µM.

As for `COc1ccc(C2ON(c3cccc(C)n3)CC=C2C)cc1` (stereo unspecified), the EC50 is more than 45.7 µM and the IC50 is more than 45.7 µM.

On to `CCCCC(CC)COS(=O)(=O)O` (stereo unspecified), for which the EC50 was 145 µM and the IC50 is more than 200 µM.

`O=[N+]([O-])c1c[c]([Sb](=[O])([OH])[OH])ccc1Cl`: the 50% effective concentration (EC50) was more than 200 µM and the IC50 is more than 200 µM.

With `CC(C)(C)C(=O)/C=C(\OB(F)F)C(C)(C)C`, the EC50 was more than 200 µM and the IC50 was more than 200 µM.

As for `O=C(CC1C(=O)Nc2ccccc2S1(=O)=O)Nc1cc(Cl)ccc1Cl` (stereo unspecified), the EC50 was more than 18.2 µM and the half-maximal inhibitory concentration (IC50) was more than 18.2 µM.

Take `COc1ccc(C2=C(OC(C)=O)c3cccn3-c3ccccc3S2)cc1`: the EC50 is more than 200 µM and the IC50 was found to be 1.32 µM.

Consider `CCOC(=O)c1ccc(/C=C/c2cccn2C(=O)OC(C)(C)C)[nH]1`, for which the outcome was inactive.

`NCCSc1nc2ccccc2c(=O)n1-c1ccccc1`: the EC50 was more than 200 µM and the IC50 is 30.2 µM.

Regarding `Cc1cc(C)nc(NS(=O)(=O)c2ccc(NC(=O)c3cccnc3Nc3cccc(Cl)c3)cc2)n1`, the outcome was inactive.

`CC1CC/C(=C\c2ccc(F)cc2)C2=C1C(c1ccc(F)cc1)NC(=S)N2` (stereo unspecified): the EC50 was more than 200 µM and the IC50 was 16.6 µM.

Take `O=C1OC(c2cccc(C(F)(F)F)c2)(c2cccc(C(F)(F)F)c2)c2ccc3ccccc3c21`: the outcome was inactive.

With `Cc1ccc(-c2c(C#N)c(-c3ccccc3)n(NS(=O)(=O)c3ccccc3)c(=O)c2C#N)cc1`, the EC50 is more than 200 µM and the IC50 came to 28.8 µM.

For `CN(C)c1ccc(C=Nc2ccc(SSc3ccc(N=Cc4ccc(N(C)C)cc4)cc3)cc2)cc1`, the EC50 was more than 200 µM and the half-inhibitory concentration (IC50) stood at 25.1 µM.

With `NNC(=O)/C(NC(=O)c1ccccc1)=C(\N)c1cccc([N+](=O)[O-])c1`, the EC50 was more than 15.1 µM and the IC50 was more than 15.1 µM.

In the case of `O=[N+]([O-])c1ccc(N/N=C/C(c2ccccc2)c2ccsc2)c([N+](=O)[O-])c1` (stereo unspecified), the EC50 is more than 200 µM and the IC50 worked out at 19.5 µM.

For `C=C(C)C(CC=C(C)C)CC12CC(CC=C(C)C)C(C)(C)C(CC=C(C)C)(C(=O)C(Cc3ccc(O)c(O)c3)=C1O)C2=O` (stereo unspecified), the EC50 is more than 200 µM and the IC50 turned out to be 158 µM.

Turning to `O=[N+]([O-])c1ccc(CSSCc2ccc([N+](=O)[O-])cc2)cc1`, the EC50 is more than 200 µM and the IC50 was 17.8 µM.

Regarding `COc1ccc(/C=C2\C(=O)N(NC(C)=O)c3ccccc32)cc1`, the EC50 was more than 309 µM and the 50% inhibitory concentration (IC50) is 52.5 µM.

Turning to `CC(C)(CN1CCCCC1)C(=O)/C=C/c1ccc(Br)cc1`, the EC50 was more than 129 µM and the IC50 is 1.7 µM.

Take `O=c1/c(=C/c2ccccc2[N+](=O)[O-])sc2nc3ccccc3n12`: the EC50 was more than 3.24 µM and the IC50 is more than 3.24 µM.

With `CC(C)(c1ccc(OP2(=O)OCC3(CC=CCC3)CO2)cc1)c1ccc(OP2(=O)OCC3(CC=CCC3)CO2)cc1` (stereo unspecified), the EC50 was more than 200 µM and the IC50 came out at 22.9 µM.

As for `CCOC(=O)c1cc(C)nc2c1c(=O)n(-c1ccccc1)c(=O)n2CCCCN1CCN(c2ncccn2)CC1`, the EC50 is more than 200 µM and the half-inhibitory concentration (IC50) turned out to be 107 µM.

Turning to `Cc1ccc(OCC2OC(n3cnc4c(Cl)nc(Nc5cc(Cl)cc(Cl)c5)nc43)CC2Oc2ccc(C)cc2)cc1` (stereo unspecified), the EC50 was more than 200 µM and the IC50 was more than 200 µM.

As to `CN(C)c1ccc(/C=C/c2ccc(/C=C/c3ccc(N(C)C)cc3)cc2)cc1`, the result was inactive.

Regarding `CCOC(=O)C1Sc2c(c(=O)n(C)c3ccccc23)C1=O` (stereo unspecified), the EC50 was more than 16.6 µM and the IC50 stood at 12 µM.

As to `COc1cc(CC(=O)c2cc3c(cc2-c2ccccc2)OCO3)cc(OC)c1OC`, the EC50 is more than 89.1 µM and the IC50 worked out at 24 µM.

Take `COc1ccc(C(CC(=O)O)CC(=O)O)cc1[N+](=O)[O-]`: the EC50 is more than 200 µM and the 50% inhibitory concentration (IC50) was more than 200 µM.

Turning to `COC(=O)c1ccccc1C#CC#Cc1ccccc1C(=O)OC`, the EC50 is more than 200 µM and the half-maximal inhibitory concentration (IC50) was 24 µM.

As to `CCNCCNCC.[O-][Cl+3]([O-])([O-])[O-].[Pd+2].c1ccc(-c2ccccn2)nc1`, the EC50 was more than 200 µM and the 50% inhibitory concentration (IC50) worked out at 30.9 µM.

Take `Cc1c(S(=O)c2cc(C(C)(C)C)c(O)c(CN3CCCC3)c2C)cc(C(C)(C)C)c(O)c1CN1CCCC1`: the EC50 was more than 200 µM and the IC50 turned out to be 13.5 µM.

`COC(=O)c1cc(C(c2cc(C(=O)OC)c(OC)c(Br)c2C)C(Cl)Cl)c(C)c(Br)c1OC`: the EC50 is more than 200 µM and the IC50 came out at 10 µM.

Regarding `O=C1[C@@H]2[C@@H](CN3CN(c4ccccc4)N=C(c4ccccc4)[C@@]23c2ccccc2)C(=O)N1c1ccccc1`, the EC50 was more than 20 µM and the IC50 came to 2.95 µM.

For the compound `C1CCC(N2CSCSC2)CC1`, the EC50 was more than 200 µM and the IC50 turned out to be 107 µM.

With `CC(C)(C)OC(=O)NCCCCC(NC(=O)C(Cc1c[nH]c2ccccc12)NC(=O)OCC1c2ccccc2-c2ccccc21)C(=O)N1CCCC1C(=O)NCC(N)=O` (stereo unspecified) (Fmoc-WK(Boc)PG-NH2; configuration not given here), the EC50 is more than 200 µM and the IC50 was more than 200 µM.

With `CNC(=O)CNC(=O)C(Cc1ccc(NC(=O)CCCCC(C)=O)cc1)NC(=O)C(CCC(=O)OCc1ccccc1)NC(=O)OC(C)(C)C` (stereo unspecified), the EC50 is more than 200 µM and the IC50 was more than 200 µM.

`CC(=O)Nc1cc2c(cc1O)CC[C@@H]1[C@@H]2CC[C@]2(C)[C@@H](O)CC[C@@H]12`: the EC50 is more than 200 µM and the IC50 turned out to be 20.9 µM.

Turning to `C1=NCCNCCNCCN=Cc2ccccc2OCc2cccc(n2)COc2ccccc21`, the EC50 is more than 50.1 µM and the 50% inhibitory concentration (IC50) worked out at 7.76 µM.

For the compound `COc1cc(C(=O)NC(CCN)(c2ccccc2)c2ccccc2)cc(OC)c1OC`, the EC50 is more than 200 µM and the IC50 stood at 67.6 µM.

On to `C=C1CN(S(=O)(=O)c2ccc(C)cc2)CCCN(Cc2ccc(C)o2)CCCN(S(=O)(=O)c2ccc(C)cc2)C1`, for which the EC50 was more than 200 µM and the IC50 is more than 200 µM.

On to `COC(=O)C1C=CCC2CCCCC21N1CCCC1` (stereo unspecified), for which the outcome was inactive.

For `CC1(C)OC(=O)C2C3C=CC(C2C(=O)O)C31` (stereo unspecified), the EC50 is more than 1120 µM and the IC50 was more than 1120 µM.

With `N/C(CCCC/C(N)=N/O)=N\O`, the EC50 is more than 200 µM and the IC50 was more than 200 µM.

For the compound `C=CCOC(OCC=C)/C(Br)=C/C`, the result was inactive.

Consider `CCOC(=O)C(=O)Nc1ccc(Cl)c(C(F)(F)F)c1`, for which the outcome was inactive.

As for `CC(C)CCCC(C)C1CCC2C3CC[C@H]4C[C@@H](CCC=C(c5cc(Cl)c(OCc6cccc(B7OC(C)(C)C(C)(C)O7)c6)c(C(=O)OCc6cccc(B7OC(C)(C)C(C)(C)O7)c6)c5)c5cc(Cl)c(OCc6cccc(B7OC(C)(C)C(C)(C)O7)c6)c(C(=O)OCc6cccc(B7OC(C)(C)C(C)(C)O7)c6)c5)CC[C@]4(C)C3CC[C@]12C` (stereo partly specified), the EC50 was more than 50.1 µM and the IC50 is more than 50.1 µM.

As for `O=C1C=C2C(=NC34CCCCC3C(c3ccccc3)C3=C(c5ccccc5CC3)N24)c2ccccc21` (stereo unspecified), the concentration for a half-maximal effect (EC50) was 186 µM and the half-inhibitory concentration (IC50) was more than 200 µM.

With `COC(=O)C(/C(=N\NC(N)=S)C(=O)Nc1ccccc1[N+](=O)[O-])c1cnc2ccccc2n1` (stereo unspecified), the EC50 is more than 145 µM and the half-inhibitory concentration (IC50) is more than 145 µM.

Take `Oc1ccccc1C1SC(c2ccccc2O)SC(c2ccccc2O)S1` (stereo unspecified): the EC50 was more than 200 µM and the half-maximal inhibitory concentration (IC50) was found to be 11.5 µM.

As to `O=C(NC1C=Nc2ccc([N+](=O)[O-])cc2NC1=O)c1cc(Cl)cc([N+](=O)[O-])c1` (stereo unspecified), the EC50 was more than 447 µM and the IC50 stood at 155 µM.

For `COc1cc2c(c3c1[C@@H](O)[C@@H](C)[C@@H](C)O3)C=CC(C)(C)O2`, the EC50 was more than 200 µM and the IC50 is 75.9 µM.

With `CC(=C(C(=O)O)C(=O)O)c1cc(-c2cccs2)cc(-c2ccc(Cl)cc2)c1O`, the EC50 was more than 200 µM and the concentration for half-maximal inhibition (IC50) stood at 12.3 µM.

In the case of `C1CCC(OCC2(COC3CCCCO3)CCCCO2)OC1` (stereo unspecified), the EC50 was more than 200 µM and the half-inhibitory concentration (IC50) is more than 200 µM.

Consider `O=C(O)CC1OC(=O)C(Br)=C1O` (stereo unspecified), for which the EC50 was more than 1050 µM and the IC50 was more than 1050 µM.

Consider `COc1ccc(C2CC(C)=Nc3c([nH]c(=S)[nH]c3=O)N2)cc1` (stereo unspecified), for which the EC50 was more than 16.6 µM and the half-inhibitory concentration (IC50) was more than 16.6 µM.

For `CCSc1nc(=S)n(-c2ccccc2)c(C)c1C(C)=O`, the EC50 was more than 200 µM and the IC50 is more than 200 µM.

Consider `NC(N)=NCCS(=O)(=O)O`, for which the EC50 is more than 200 µM and the IC50 is more than 200 µM.

`Cc1ccc(C)c(N2C(=O)C(=O)C(c3nc4ccccc4s3)/C(=N/N)C2=O)c1` (stereo unspecified): the EC50 was more than 50.1 µM and the IC50 is more than 50.1 µM.

Take `C#Cc1c(C)c(/C=C/C(C)=C\C(=O)OC)n(C)c1C`: the EC50 is more than 28.2 µM and the half-maximal inhibitory concentration (IC50) was more than 28.2 µM.

Consider `CC1(C)OC([C@H](O)CO)C([C@H]2NCCS2)O1` (stereo partly specified), for which the EC50 is more than 200 µM and the half-inhibitory concentration (IC50) was more than 200 µM.

For the compound `Cn1ccc(-c2cn(C)c3ccnn3c2=O)n1`, the EC50 was more than 200 µM and the IC50 is more than 200 µM.
